# Laboratory results reported in US9303069B2, “Peptides for treating cancer” (University of Mississippi Medical Center, priority 2014, dated 2016).
# Entries after “also recorded” stand apart in the source; their conditions may differ. Ends that are not written are not given here.
# What was measured:
# SKOV3 cells = experiment: Hanging drops (anchorage independent growth), SKOV3; assay type: cell-based, human; details: IRIS peptide 5 μM versus scrambled peptide
# Procedure: Hanging drops: In this technique, the anchorage independent growth ability of cells was measured.
# Hanging Drop Method. Single-cell suspensions were made from monolayer cultures in growth medium. Cell density used was 250 cells per drop (20 μl) of medium dispensed onto a 6 cm dish (Corning Life Sciences, Union City, Calif.). The dish was then inverted, the drops were held in place by surface tension, and cells accumulated at the free liquid-air interface. The dishes were placed on a tray with water and incubated under standard conditions. Hanging cell-drops formed was analyzed using microscope. All experiments were done in triplicate.
# BRCA1-IRIS and survivin = experiment: IHC of MDA-MB-468 tumors for BRCA1-IRIS and survivin; assay type: in vivo, mice; details: MDA-MB-468 tumors after treatment
# Text: To study that on the molecular level, sections from these tumors were stained with H&E or for BRCA1-IRIS or survivin using immunohistochemistry. […] Accordingly, it is proposed that inactivating BRCA1-IRIS in TNBC patients might sensitize to lower paclitaxel concentrations to avoid the adverse side effects and also to prevent the recurrence of these tumors at a later point.
# Immunohistochemistry (IHC). Breast tissue microarrays comprised of normal, DCIS, invasive and metastatic were purchased from US Biomax, Inc. Paraffin embedded tissue sections were de-waxed in xylene and rehydrated in alcohol. Antigen-retrieval: for FOXO3a and survivin was by heating the slides in citrate buffer (10 μM, pH 6.0) using microwave (Power level 4) for 10 minutes, for BRCA1-IRIS by incubating slides in pepsin (10 μM) for 20 min at 37° C. Endogenous peroxidase activity was suppressed by treating the slides with 3% H2O2 for 10 min. Slides were then incubated for 1 hour at room temperature with antibodies to human FOXO3a or survivin (Cell Signaling Technology, USA 1:400), or overnight at 4° C. with monoclonal anti-human BRCA1-IRIS (1:75). Vectastain Elite ABC Kit was used to develop the staining using horseradish peroxidase labeled secondary antibodies (1 hour at room temperature).
# MDA-MB-231 cells = details: 48 h
# Procedure: All cell lines were exposed to increasing concentrations of paclitaxel and BRCA1-IRIS expression, and cells' viability was then measured.
# Stable clones were then exposed to 0, 10 or 20 μM of EGFR (Erlotinib), ErbB2 (CP-724714), PI3′K/AKT (LY294002), p38 (SB203580), ERK (PD98059) or JNK (SP600125) inhibitors for 24 hours.
# Cell viability under different experimental conditions was determined using the MTS assay. Briefly, cells (2.5×10^4 cells per well) were seeded in 96-well plates and incubated overnight at 37° C. in 10% humidified CO2 atmosphere. The next day they were incubated with varying concentration of peptide, or inhibitors for 24 hours at 37° C. Cell viability was determined using cell Titer 96® Aqueous (Promega, Madison, Wis., USA) following manufacturer's instructions. Cell viability (%) was expressed as a ratio of treated cells to control cells×100. Growth inhibition was also determined by manually counting cells in five different microscopic fields. Change in cell numbers (fold) was expressed as a ratio of the means of these recording of treated cells compared to control cells×100. Each experiment was done in triplicate, repeated three separate times.
# BRCA1-IRIS [1] = experiment: BRCA1-IRIS expression in ovarian cells (Western analysis); assay type: cell-based, human; details: all ovarian cell lines; 10 μM of IRIS peptide for 24 hours
# Text: At these low concentrations of cisplatin BRCA1-IRIS expression was induced in HOSE cells and remained high in HOSE/IRIS cells (FIG. 17). […] Cell lines expressing the lowest levels of BRCA1-IRIS (i.e.
# caspase 3/7 = experiment: Cleaved / activated caspase 3/7 in MDA-MB-231 and MDA-MB-468 cells; assay type: cell-based, human; details: increasing concentrations of IRIS peptide
# Procedure: To assess whether BRCA1-IRIS inactivation can sensitize TNBC cells to lower paclitaxel concentrations, MDA-MB-231 and MDA-MB-468 were exposed to 1 μM of paclitaxel 0, 1, 2, 5 and 10 μM of IRIS peptide for 24 hours. […] Perhaps more importantly, in the presence of only 1 μM of paclitaxel, the IC50 of IRIS peptide was reduced to <2 μM in both cell lines (dark color lines in FIG. 85).
# BRCA1-IRIS [2] = experiment: BRCA1-IRIS expression in breast cells (Western); assay type: cell-based, human
# Procedure: HME and HME/IRIS cells were treated with 10, 20 and 50 μM of paclitaxel for 24 hours. Compared to HME/IRIS cells, untreated HME cells express very low level of BRCA1-IRIS (FIG. 68, left). […] Both EGF and NRG1, which were secreted at higher levels from untreated HME/IRIS cells, remained high after paclitaxel (until ˜50 μM, FIG. 68, left), whereas in HME cells, both were induced by low paclitaxel treatment (FIG. 68, left). Consistently, in HME/IRIS cells EGFR was phosphorylated on Y1173 (activated by EGF when EGFR is in complex with ErbB2) and ErbB2 on Y1248 (activated by NRG1 when ErbB2 is in complex with ErbB3) remained the same after paclitaxel treatment (until ˜50 μM, FIG. 68, left). Phosphorylated EGFR-Y1173 and ErbB2-Y1248 was only observed in paclitaxel treated HME cells, especially at low concentration (FIG. 68, left).
# Survived/paclitaxel-resistant cells were then propagated in the absence of paclitaxel and analyzed. Again, the intrinsically high level of BRCA1-IRIS was not affected by paclitaxel in HME/IRIS cells (FIG. 69, left). […] The expressions of EGFR, ErbB2 and ErbB3 were high in HME/IRIS and HME cells (FIG. 69, left). Despite an intrinsic increase in HME/IRIS and paclitaxel-acquired increase in HME cells in AKT activation, FOXO inactivation/degradation and thus activation increase in CyclinD1, survivin, Bcl-2, Bcl-xL and NF-κB was observed (FIG. 69, right).
# To test that hypothesis, an intron 11 peptide (right in FIG. 26) fused to a cell/nucleus penetrating signal at its N-terminus (left in FIG. 26) was synthesized (hereafter IRIS peptide). First, to assess the effect of this IRIS peptide, equal numbers of HME, HME/IRIS, MDA-MB-231, MDA-MB-468 and BT549 cells were exposed to increasing concentrations of scrambled or IRIS peptide for 48 hours. […] It is possible that preventing BRCA1-IRIS-X complex formation destabilizes BRCA1-IRIS and perhaps leads to its degradation.
# To investigate whether inactivating BRCA1-IRIS could sensitize TNBC to paclitaxel-induced cell death, HME cells were exposed to 0.5 μM, while HME/IRIS, MDA-MB-231, MDA-MB-468 and BT549 cells were exposed to 5 μM of IRIS peptide alone or with 5, 10 or 20 μM of paclitaxel for 24 hours. […] Again, IRIS peptide alone at these concentrations led to 50% reduction in survival of all cell lines. […] Indeed, in the presence of IRIS peptide >60%, >70% and >90% reduction in the survival of all cell lines in the presence of 5, 10 and 20 μM of paclitaxel, respectively (FIG. 84).
# To relate the effect of IRIS peptide on cell survival to the effect of BRCA1-IRIS on AKT and ERK survival pathways, MDA-MB-231 and MDA-MB-468 were treated with vehicle, 5 μM of IRIS peptide, 10 μM LY294002, 10 μM PD98059 for 24 hours or were transfected with BRCA1-IRIS siRNA for 72 hours.
sequence,measurement,setting,value
RRIRPRPPRLPRPRPRPLPFPRPGIGTRFLCLPQSIYRSELNVYAFGEHILQISKYS [IRIS peptide],ability to form hanging drops,SKOV3 cells,complete loss of ability
same,BRCA1-IRIS and survivin expression in tumors (IHC),BRCA1-IRIS and survivin,almost completely absent
same,IC50,MDA-MB-231 cells,~5 µM
same,BRCA1-IRIS expression,BRCA1-IRIS [1],significant reduction in BRCA1-IRIS expression
same,cleaved / activated caspase 3/7,caspase 3/7,gradual increase in activated caspase 3/7; also recorded: increase cleaved caspase 3/7 in both cell lines
same,BRCA1-IRIS expression,"BRCA1-IRIS [2]; HME, HME/IRIS and TNBC cell lines, 5 μM of IRIS peptide for 24 hours",significant reduction in BRCA1-IRIS expression
same,BRCA1-IRIS expression,"BRCA1-IRIS [2]; MDA-MB-231 and MDA-MB-468, 5 μM IRIS peptide, 10 μM LY294002 or 10 μM PD98059 24 hours, siRNA 72 hours",significantly decreased in both cell lines
same,BRCA1-IRIS expression,"BRCA1-IRIS [2]; all cell lines, IRIS peptide 0.5 μM (HME) or 5 μM (others), 24 hours",completely abolished BRCA1-IRIS expression in all cell lines
